pIC50: −log10 of the molar value.
Legend:
HiBiT-tagged MDM2 = target: T1, HiBiT-tagged MDM2 (Homo sapiens, UniProt Q00987); experiment: MDM2 HiBit HEK293T degradation; assay type: cell-based; details: HEK293T cells stably expressing C-terminally HiBiT-tagged MDM2; 4 h; read-out: MDM2 HiBit HEK293T degradation 4 h: Average external-Abs DC50
T1 construct: expressed in transfected cells
How it was run: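 Degradation was measured in HEK293T cells stably expressing C-terminally HiBiT-tagged MDM2, a pool selected with 1 microgram/ml puromycin. A MDM2 tool degrader and HaloPROTAC3 served as positive controls. Potency is reported as DC50 in letter bins.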

RS411 cells = experiment: Cell Viability CTG Assay; assay type: cell-based; details: Homo sapiens, RS4-11, CellTiter Glo (CTG) cell viability, read-out: Average external-IC50
Experimental: Compounds or DMSO 60 nL were stamped to the cell plate as the platemap. RS411 cells were centrifuged at 800 rpm for 5 min, suspended with culture medium, and counted with Countess (Invitrogen). The cell density was adjusted to the recommend information. 30 μL of cell solution (1000 cells/well) was added to the assay plate as the platemap and 30 μL of media was added to column 2 and column 23 as the platemap. The plate was spun down briefly. The final concentration of the compounds started at 10 μM (3 fold dilution and 11 doses) and final DMSO concentration was 0.2%. The plate was spun down briefly and incubated at 37° C., 5% CO2 for 1 day. […] 30 μL CellTiter Glo reagent was added to each well and the plate was centrifuged at 1000 rpm for 30 sec. The plate was shaken for 1 min and centrifuged at 1000 rpm for 30 sec. The plate was incubated at RT for 10 min to stabilize the luminescent signal and the luminescence was read by EnVision.
The letter codes for IC50 indicate the concentration of compound required to affect 50% of cells: A (<0.005 μM), B (0.005-0.05 μM), C (0.05-0.5 μM), and D (>0.5 μM).

T1 sequence (Q00987 whole entry): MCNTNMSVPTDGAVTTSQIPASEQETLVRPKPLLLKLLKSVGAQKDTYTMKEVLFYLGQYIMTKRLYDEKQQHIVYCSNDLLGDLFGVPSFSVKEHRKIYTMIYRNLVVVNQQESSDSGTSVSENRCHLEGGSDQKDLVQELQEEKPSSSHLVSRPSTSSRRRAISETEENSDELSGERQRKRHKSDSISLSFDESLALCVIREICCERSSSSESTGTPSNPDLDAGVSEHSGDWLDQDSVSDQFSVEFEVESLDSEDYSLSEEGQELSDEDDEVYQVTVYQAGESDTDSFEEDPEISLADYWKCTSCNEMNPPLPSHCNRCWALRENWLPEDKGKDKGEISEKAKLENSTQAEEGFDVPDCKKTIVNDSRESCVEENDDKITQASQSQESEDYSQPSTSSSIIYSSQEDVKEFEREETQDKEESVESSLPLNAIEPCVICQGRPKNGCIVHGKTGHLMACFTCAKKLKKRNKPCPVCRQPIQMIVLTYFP

| Compound | DC50 (HiBiT-tagged MDM2) [nM] | pIC50 (RS411 cells) |
| --- | --- | --- |
| Cn1c(=O)n(C2CCC(=O)NC2=O)c2ccc(CC[C@@H]3CN(C[C@H]4CC[C@H](NC(=O)[C@@H]5NC6(CCCCC6)[C@@]6(C(=O)Nc7cc(Cl)ccc76)[C@H]5c5cccc(Cl)c5F)CC4)CCO3)cc21 (stereo partly shown) [I-21] | < 10 | > 8.30 |
| COc1cc2c(cc1OC(C)C)[C@H](c1ccc(Cl)cc1)N(c1ccc(N(C)CCC3CCN(CCCCC#Cc4cccn5c(N6CCC(=O)NC6=O)cnc45)CC3)cc1)C(=O)C2 [I-22] | > 1000 | 6.30 to 7.30 |
| Cn1c(=O)n(C2CCC(=O)NC2=O)c2ccc(CN3CCC(OC4CN(C(=O)[C@H]5CC[C@H](NC(=O)[C@@H]6NC7(CCCCC7)[C@@]7(C(=O)Nc8cc(Cl)ccc87)[C@H]6c6cccc(Cl)c6F)CC5)C4)CC3)cc21 (stereo partly shown) [I-23] | < 10 | > 8.30 |
| Cn1c(=O)n(C2CCC(=O)NC2=O)c2ccc(C3CN(C[C@H]4CC[C@H](NC(=O)[C@@H]5NC6(CCCCC6)[C@@]6(C(=O)Nc7cc(Cl)ccc76)[C@H]5c5cccc(Cl)c5F)CC4)C3)cc21 (stereo partly shown) [I-24] | < 10 | > 8.30 |
| Cn1c(=O)n(C2CCC(=O)NC2=O)c2ccc(C3CCN(C[C@H]4CC[C@H](NC(=O)[C@@H]5NC6(CCC(C)(C)CC6)[C@@]6(C(=O)Nc7cc(Cl)ccc76)[C@H]5c5ccnc(Cl)c5F)CC4)CC3)cc21 (stereo partly shown) [I-25] | < 10 | > 8.30 |
| CC1(C)CCC2(CC1)NC(C(=O)N[C@H]1CC[C@H](CN3CCN(CCCc4ccn5c(N6CCC(=O)NC6=O)cnc5c4)CC3)CC1)[C@H](c1ccnc(Cl)c1F)[C@]21C(=O)Nc2cc(Cl)ccc21 (stereo partly shown) [I-26] | < 10 | > 8.30 |
| Cn1c(=O)n(C2CCC(=O)NC2=O)c2ccc(C3CCN(C(=O)CN4CCC(NC(=O)[C@@H]5NC6(CCCCC6)[C@@]6(C(=O)Nc7cc(Cl)ccc76)[C@H]5c5cccc(Cl)c5F)CC4)CC3)cc21 (stereo partly shown) [I-27] | < 10 | > 8.30 |
| CN1[C@@H](C(=O)Nc2ccc(CN3CCC(c4ccc5c(c4)n(C)c(=O)n5C4CCC(=O)NC4=O)CC3)cc2)[C@H](c2cccc(Cl)c2F)[C@]2(C(=O)Nc3cc(Cl)ccc32)C12CCCCC2 (stereo partly shown) [I-28] | < 10 | > 8.30 |
| Cn1c(=O)n(C2CCC(=O)NC2=O)c2ccc(C3CCN(C(=O)CCCN4CCC(NC(=O)[C@@H]5NC6(CCCCC6)[C@@]6(C(=O)Nc7cc(Cl)ccc76)[C@H]5c5cccc(Cl)c5F)CC4)CC3)cc21 (stereo partly shown) [I-29] | 10 to 100 | 7.30 to 8.30 |
| Cn1c(=O)n(C2CCC(=O)NC2=O)c2ccc(CCCN3CCN(C(=O)[C@H]4CC[C@H](NC(=O)[C@@H]5NC6(CCCCC6)[C@@]6(C(=O)Nc7cc(Cl)ccc76)[C@H]5c5cccc(Cl)c5F)CC4)CC3)cc21 (stereo partly shown) [I-30] | < 10 | > 8.30 |
| Cn1c(=O)n(C2CCC(=O)NC2=O)c2ccc(CCN3CCN(C(=O)CN4CCC(NC(=O)[C@@H]5NC6(CCC(C)(C)CC6)[C@@]6(C(=O)Nc7cc(Cl)ccc76)[C@H]5c5ccnc(Cl)c5F)CC4)CC3)cc21 (stereo partly drawn) [I-32, (3′R,4′S,5′R)-6″-chloro-4′-(2-chloro-3-fluoropyridin-4-yl)-N-(1-(2-(4-(2-(1-(2,6-dioxopiperidin-3-yl)-3-methyl-2-oxo-2,3-dihydro-1H-benzo[d]imidazol-5-yl)ethyl)piperazin-1-yl)-2-oxoethyl)piperidin-4-yl)-4,4-dimethyl-2″-oxodispiro[cyclohexane-1,2′-pyrrolidine-3′,3″-indoline]-5′-carboxamide] | < 10 | > 8.30 |
| Cn1c(=O)n(C2CCC(=O)NC2=O)c2ccc(C3CN(Cc4ccc(NC(=O)[C@@H]5NC6(CCCCC6)[C@@]6(C(=O)Nc7cc(Cl)ccc76)[C@H]5c5cccc(Cl)c5F)cc4)C3)cc21 (stereo partly shown) [I-34] | < 10 | 6.30 to 7.30 |
| O=C1CCC(n2c(=O)n(CP(=O)(O)O)c3cc(C4CCN(C(=O)[C@H]5CC[C@H](NC(=O)[C@@H]6NC7(CCCCC7)[C@@]7(C(=O)Nc8cc(Cl)ccc87)[C@H]6c6cccc(Cl)c6F)CC5)CC4)ccc32)C(=O)N1 (stereo partly shown) [I-35] | 100 to 1000 | 6.30 to 7.30 |
| Cn1c(=O)n(C2CCC(=O)NC2=O)c2ccc(C3CCN(C(=O)[C@@H]4CC[C@@H](NC(=O)[C@@H]5NC6(CCCCC6)[C@@]6(C(=O)Nc7cc(Cl)ccc76)[C@H]5c5cccc(Cl)c5F)CO4)CC3)cc21 (stereo partly shown) [I-37] | < 10 | > 8.30 |

— US20250034147A1, “MDM2 DEGRADERS AND USES THEREOF” (Kymera Therapeutics, Inc., priority 2021, published 2025)
